The subject of experiment [1] is Plasmodium falciparum mitogen-associated protein kinase 2 (MAPK2/MAP2). The experiment can be described thus: MAPK2 Kinase-Glo ATP-consumption screen. Particulars: concentrations of 10–30 μM. The experiment is classed as biochemical. The method, then:
Biochemical assays were performed in white 384-well plates (Nunc). Liquid transfers were done manually with 8-channel pipets. Compounds were initially tested in a single-point screen (final concentration 1 μM). […] The catalytic activity of each kinase was considered proportional to ATP consumed, as determined from measurements of residual [ATP] with the luciferase-based reagent Kinase-Glo (Promega) following incubation. Luminescence (proportional to residual [ATP]) was measured on the plate readers FLx800 (BioTek Instruments, Winooski, VT, USA) and MicroBeta^2 (PerkinElmer, Waltham, MA, USA). Incubation times were chosen to ensure near-complete ATP depletion in the absence of inhibition, thus maximizing the difference in signal between inhibited and uninhibited wells.
Final concentrations were 1 μM ATP, 0.5 mM DTT, 1 mM MgCl2, 0.5 mg/mL BSA, and 10 μg/ml MAP2 in a buffer of 50 mM HEPES (pH 7.0). 0.5 mg/mL histone III-S served as the substrate; 100 μM AMP-PNP, an ATP analog, was used as a control inhibitor. Incubation time was 4 hours.
In general terms: In Kinase-Glo more light means more ATP remaining.

The target of experiment [2] is T1, Plasmodium falciparum calcium-dependent protein kinase 1 (CDPK1) (Plasmodium falciparum, UniProt P62344).
T1 construct: 6-Histidine (N); made in house
Kind of experiment: CDPK1 Kinase-Glo ATP-consumption screen and dose-response. It counts as biochemical. The following applies: hits below 1 uM; read-out: CDPK1 IC50. An outline of the steps: (§1)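 ATP consumption by recombinant P. falciparum CDPK4 or CDPK1 measured as residual ATP by Kinase-Glo luminescence, with 40 μM Syntide-2 substrate and 90 min incubation stopped with 5 mM EGTA. Single-point screen at 1 μM final, followed by dose-response; no-substrate wells as negative control.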

For experiment [3], the target named is T2, Plasmodium falciparum calcium-dependent protein kinase 4 (CDPK4) (Plasmodium falciparum, UniProt Q8IBS5).
T2 construct: 6-Histidine (N); made in house
T2 sequence (Q8IBS5 1-528): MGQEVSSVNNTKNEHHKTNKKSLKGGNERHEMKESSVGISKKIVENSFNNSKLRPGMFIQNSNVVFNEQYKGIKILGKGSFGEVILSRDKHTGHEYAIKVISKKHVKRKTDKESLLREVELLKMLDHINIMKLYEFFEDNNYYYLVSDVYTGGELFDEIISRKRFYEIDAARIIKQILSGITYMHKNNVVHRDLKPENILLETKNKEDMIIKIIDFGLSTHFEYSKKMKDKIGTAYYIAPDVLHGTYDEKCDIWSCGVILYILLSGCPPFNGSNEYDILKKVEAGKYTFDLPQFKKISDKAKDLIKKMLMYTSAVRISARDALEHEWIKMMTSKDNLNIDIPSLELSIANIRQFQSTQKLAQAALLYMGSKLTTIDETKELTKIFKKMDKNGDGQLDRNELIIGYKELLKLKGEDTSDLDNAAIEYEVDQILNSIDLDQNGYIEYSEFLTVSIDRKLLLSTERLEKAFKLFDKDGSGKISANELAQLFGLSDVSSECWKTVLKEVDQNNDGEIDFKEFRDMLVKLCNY
The experiment can be described thus: CDPK4 Kinase-Glo ATP-consumption screen and dose-response. Particulars: hits below 1 uM. The experiment is classed as biochemical. The gist of the method:
as §1

Experiment [4] concerns the target T3, Plasmodium falciparum protein kinase 6 (PK6) (Plasmodium falciparum, UniProt Q8IDW1).
T3 construct: 6-Histidine (N); made in house
T3 sequence (Q8IDW1 1-305): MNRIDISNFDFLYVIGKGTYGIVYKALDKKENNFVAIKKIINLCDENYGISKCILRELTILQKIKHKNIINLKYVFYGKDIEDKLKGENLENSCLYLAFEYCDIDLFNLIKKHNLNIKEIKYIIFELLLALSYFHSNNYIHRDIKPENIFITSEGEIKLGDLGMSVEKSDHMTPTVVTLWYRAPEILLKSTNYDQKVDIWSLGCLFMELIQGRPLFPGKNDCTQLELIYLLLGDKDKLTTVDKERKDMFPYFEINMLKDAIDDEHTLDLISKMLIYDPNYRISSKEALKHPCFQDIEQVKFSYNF
The experiment can be described thus: biochemical. The following applies: hits below 1 uM; read-out: PK6 IC50.

The target in experiment [5] is PKG (Plasmodium falciparum, UniProt Q8I719). Kind of experiment: PKG IC50 (supplementary data file of hits). The experiment is classed as biochemical. The text has this:
Supplement pone.0149996.s003.xls, sheet "combined_1_sorted"

Experiment [6] relates to HepG2 cells. Particulars: HepG2 cells; downloaded from ChEMBL ref F.J. Gamo et al., Nature 2010; cited from earlier work.
In experiment [7] the test system is P. falciparum 3D7 cells. The following applies: P. falciparum 3D7; downloaded from ChEMBL ref F.J. Gamo et al., Nature 2010; cited from earlier work.
For experiment [8], the system named is DD2. Also noted: method as in F.J. Gamo et al., Nature 2010. Particulars: P. falciparum Dd2; downloaded from ChEMBL ref F.J. Gamo et al., Nature 2010; cited from earlier work.
Experiment [9] has as its system 3D7 PFLDH. The arrangement: method as in F.J. Gamo et al., Nature 2010. Particulars: downloaded from ChEMBL ref F.J. Gamo et al., Nature 2010; cited from earlier work.

Structures are written as SMILES.

T1 sequence (P62344 whole entry): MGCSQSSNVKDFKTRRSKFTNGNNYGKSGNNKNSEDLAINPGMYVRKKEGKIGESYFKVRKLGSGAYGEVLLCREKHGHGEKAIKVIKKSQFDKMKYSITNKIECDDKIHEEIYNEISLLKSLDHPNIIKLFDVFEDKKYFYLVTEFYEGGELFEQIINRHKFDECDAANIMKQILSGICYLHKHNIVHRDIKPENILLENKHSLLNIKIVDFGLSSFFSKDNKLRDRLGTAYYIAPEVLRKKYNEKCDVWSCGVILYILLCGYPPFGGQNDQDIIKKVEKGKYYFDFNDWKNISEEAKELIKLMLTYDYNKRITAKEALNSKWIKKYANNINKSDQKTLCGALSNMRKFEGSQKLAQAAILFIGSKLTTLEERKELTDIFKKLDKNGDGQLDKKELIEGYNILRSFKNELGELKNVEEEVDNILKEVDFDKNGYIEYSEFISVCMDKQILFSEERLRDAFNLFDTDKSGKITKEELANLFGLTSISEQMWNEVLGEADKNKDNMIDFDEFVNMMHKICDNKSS
PKG, sequence (Q8I719 whole entry): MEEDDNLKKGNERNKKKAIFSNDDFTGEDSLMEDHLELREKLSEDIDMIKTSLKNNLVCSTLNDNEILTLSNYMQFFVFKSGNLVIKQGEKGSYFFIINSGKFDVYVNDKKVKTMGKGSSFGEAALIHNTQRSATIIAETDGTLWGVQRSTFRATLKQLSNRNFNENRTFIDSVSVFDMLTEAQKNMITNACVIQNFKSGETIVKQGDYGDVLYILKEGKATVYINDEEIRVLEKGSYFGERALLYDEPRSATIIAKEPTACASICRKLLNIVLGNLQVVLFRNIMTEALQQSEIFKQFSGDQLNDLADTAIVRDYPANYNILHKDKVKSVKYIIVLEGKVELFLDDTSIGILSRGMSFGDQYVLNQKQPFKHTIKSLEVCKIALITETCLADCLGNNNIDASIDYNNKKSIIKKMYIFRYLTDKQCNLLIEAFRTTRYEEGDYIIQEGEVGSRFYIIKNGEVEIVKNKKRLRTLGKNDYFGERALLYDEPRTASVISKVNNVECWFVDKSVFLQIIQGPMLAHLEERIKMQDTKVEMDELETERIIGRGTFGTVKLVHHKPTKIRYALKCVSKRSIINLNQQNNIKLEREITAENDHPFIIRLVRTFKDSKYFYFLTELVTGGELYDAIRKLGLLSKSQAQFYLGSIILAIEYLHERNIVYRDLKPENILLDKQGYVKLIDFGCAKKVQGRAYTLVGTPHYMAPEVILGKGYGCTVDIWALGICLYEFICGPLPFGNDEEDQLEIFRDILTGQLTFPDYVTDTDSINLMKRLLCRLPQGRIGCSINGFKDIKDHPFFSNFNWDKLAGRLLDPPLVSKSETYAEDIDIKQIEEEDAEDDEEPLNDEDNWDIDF

In the case of `Cc1ccc(-n2nc(C(C)(C)C)cc2NC(=O)Nc2ccc(OCCN3CCOCC3)c3ccccc23)cc1` [BIRB796], the “Inhibition of MAPK2 (tested as possible control inhibitor)” value (from here on “Inhibition of MAPK2”) in experiment [1] is listed as “None gave consistent inhibition”.
Turning to `O=C1Nc2ccc3ncsc3c2/C1=C/Nc1ccc(S(=O)(=O)Nc2ccccn2)cc1` [GW8510], in experiment [1], the “Inhibition of MAPK2” value is given as “None gave consistent inhibition”.
Broadly, the IC50 is the midpoint of a concentration-inhibition curve. Regarding `CC(=O)Nc1cccc(Nc2nccc(-c3c(-c4cccc(NC(=O)c5c(F)cccc5F)c4)nn4ncccc34)n2)c1` [TCMDC-135548], the IC50 in experiment [2] is 0.015 µM; in experiment [3], 0.026 µM; in [4], 0.144 µM; in experiment [5], 0.524 µM. The PCT_INHIB_HEPG2 in [6] is recorded as 83. For the same compound, in experiment [7], the PCT_IHB_3D7 is 96. Also, the pXC50_3D7 in experiment [7] is 6.736. Moreover, the PCT_INHB_DD2 in experiment [8] is reported as 51. Also, in [9], the PCT_INHIB_3D7_PFLDH is given as 5.
As for `CC(c1cccc(Nc2nccc(-c3c(-c4cccc(NC(=O)c5c(F)cccc5F)c4)nn4ncccc34)n2)c1)S(C)(=O)=O` (stereo not drawn) [TCMDC-135696], the IC50 in experiment [2] was 0.095 µM; in experiment [3] it was 0.024 µM; in experiment [4] it was 0.375 µM; in experiment [5] it was > 10 µM. For the same compound, in experiment [6], the PCT_INHIB_HEPG2 is 79. Moreover, the PCT_IHB_3D7 in [7] is reported as 98. For the same compound, the pXC50_3D7 in experiment [7] was 7.341. For the same compound, the PCT_INHB_DD2 in experiment [8] is on record as 98. The PCT_INHIB_3D7_PFLDH in [9] is on record as 4.
For the compound `CS(=O)(=O)Cc1ccc(Nc2nccc(-c3c(-c4cccc(C(=O)Nc5c(F)cccc5F)c4)nn4ccccc34)n2)cc1` [TCMDC-135742], the IC50 in experiment [2] is 0.05 µM; in experiment [3] it was 0.065 µM; in experiment [4], 0.105 µM; in experiment [5], > 10 µM. Further, the PCT_INHIB_HEPG2 in [6] was 85. Besides, the PCT_IHB_3D7 in experiment [7] was 96. The pXC50_3D7 in experiment [7] was 6.274. Also, the PCT_INHB_DD2 in experiment [8] was 92. In experiment [9], the PCT_INHIB_3D7_PFLDH was 0.
For the compound `CS(=O)(=O)Cc1ccc(Nc2nccc(-c3c(-c4cccc(NC(=O)C5CCCCC5)c4)nn4ncccc34)n2)cc1` [TCMDC-135812], the IC50 in experiment [2] was 0.037 µM; in [3], 0.067 µM; in experiment [4], 0.139 µM; in experiment [5], > 10 µM. In addition, in experiment [6], the PCT_INHIB_HEPG2 is 31. The PCT_IHB_3D7 in experiment [7] was 98. Further, the pXC50_3D7 in experiment [7] is on record as 6.697. In experiment [8], the PCT_INHB_DD2 is 99. For the same compound, in experiment [9], the PCT_INHIB_3D7_PFLDH was 0.
As for `CCN(CC)CCCOc1ccc(Nc2nccc(-c3c(-c4cccc(NC(=O)c5c(F)cccc5F)c4)nn4ccccc34)n2)cc1F` [TCMDC-135920], the IC50 in experiment [2] is 0.429 µM; in experiment [3] it was 0.086 µM; in [4], 0.302 µM; in experiment [5], 0.131 µM. The PCT_INHIB_HEPG2 in experiment [6] was 86. Besides, in experiment [7], the PCT_IHB_3D7 is recorded as 100. In [7], the pXC50_3D7 is recorded as 6.39. Moreover, the PCT_INHB_DD2 in experiment [8] is recorded as 99. Besides, in [9], the PCT_INHIB_3D7_PFLDH was 0.
Turning to `COCCOc1ccc(Nc2nccc(-c3c(-c4cccc(NC(=O)c5c(F)cccc5F)c4)nn4ccccc34)n2)cc1Cl` [TCMDC-135955], the IC50 in [2] is 0.152 µM; in experiment [3], 0.853 µM; in [5], > 10 µM. The PCT_INHIB_HEPG2 in [6] is recorded as 53. In addition, the PCT_IHB_3D7 in [7] is reported as 99. Moreover, in experiment [7], the pXC50_3D7 was 6.448. Moreover, the PCT_INHB_DD2 in experiment [8] was 97. Also, in experiment [9], the PCT_INHIB_3D7_PFLDH is given as 4.
With `CCn1c(-c2nonc2N)nc2c(-c3cccc(NC(=O)Nc4cccc(C(F)(F)F)c4)c3)ncc(OCCCN)c21.O=C(O)C(F)(F)F` [TCMDC-136178], the IC50 in experiment [2] was 0.015 µM; in experiment [3] it was 0.342 µM; in [5], 2.08 µM. In [6], the PCT_INHIB_HEPG2 is recorded as 21. For the same compound, the PCT_IHB_3D7 in experiment [7] is 95. Further, the pXC50_3D7 in experiment [7] was 6.014. Besides, in experiment [8], the PCT_INHB_DD2 was 70. In experiment [9], the PCT_INHIB_3D7_PFLDH is 2.
Regarding `CCn1c(-c2nonc2N)nc2c(-c3cccc(NC(=O)Nc4ccccc4OC)c3)ncc(OCCCN)c21.O=C(O)C(F)(F)F` [TCMDC-136190], the IC50 in [2] was 0.032 µM; in experiment [3], 0.706 µM; in experiment [5], 0.783 µM. In addition, the PCT_INHIB_HEPG2 in [6] was 84. Moreover, the PCT_IHB_3D7 in experiment [7] is on record as 92. The pXC50_3D7 in experiment [7] is listed as 5.998. Further, the PCT_INHB_DD2 in [8] is listed as 58. Also, the PCT_INHIB_3D7_PFLDH in [9] is listed as 0.
With `CCn1c(-c2nonc2N)nc2c(-c3cccc(NC(=O)Nc4ccccc4Cl)c3)ncc(OCCCN)c21.O=C(O)C(F)(F)F` [TCMDC-136192], the IC50 was determined as 0.072 µM in [2], 0.138 µM in [3] and 0.566 µM in experiment [5]. For the same compound, the PCT_INHIB_HEPG2 in [6] is recorded as 2. Further, the PCT_IHB_3D7 in [7] is reported as 99. Besides, the pXC50_3D7 in experiment [7] is given as 6.173. Moreover, the PCT_INHB_DD2 in experiment [8] is listed as 74. In addition, the PCT_INHIB_3D7_PFLDH in experiment [9] was 0.
Take `CC(C)(C)CNCC(C)(C)c1nc(-c2ccc(Cl)c(O)c2)c(-c2ccncc2)[nH]1.Cl` [TCMDC-140549]: the figures for the IC50 in [2], in experiment [3] and in [5] were 0.159 µM, 0.637 µM and > 10 µM, respectively. In addition, in experiment [6], the PCT_INHIB_HEPG2 is 42. Also, the PCT_IHB_3D7 in [7] was 100. In addition, the pXC50_3D7 in [7] is recorded as 6.221. For the same compound, in experiment [8], the PCT_INHB_DD2 was 98. The PCT_INHIB_3D7_PFLDH in [9] is 5.
For `CC(C)(CN)c1cc(-c2ccc(Cl)c(O)c2)c(-c2ccncc2)o1.Cl` [TCMDC-141334], the IC50 in experiment [2] came out at 0.013 µM; in experiment [3], 0.433 µM; in experiment [5] it was 0.042 µM. Further, in [6], the PCT_INHIB_HEPG2 was 44. Moreover, the PCT_IHB_3D7 in [7] was 92. The pXC50_3D7 in [7] is recorded as 5.944. For the same compound, in experiment [8], the PCT_INHB_DD2 is recorded as 97. The PCT_INHIB_3D7_PFLDH in [9] is 7.
`NC1=NC(=O)/C(=C2\CCNC(=O)c3[nH]c(Br)cc32)N1` [hymenialdisine]: in experiment [1], the “Inhibition of MAPK2” value is on record as “None gave consistent inhibition”.

Source of the values: paper PMC4774911, “Biochemical Screening of Five Protein Kinases from Plasmodium falciparum against 14,000 Cell-Active Compounds” (PLoS ONE, 2016).
